The values that follow are results of earlier work, collected in patent US20070293674A1, “Novel Saperconazole Crystalline Forms and Related Processes, Pharmaceutical Compositions and Methods” (TRANSFORM PHARMACEUTICALS, INC., priority 2004, published 2007).

The conditions of data set [1]: piperazine of itraconazole.
For data set [2] the following is noted: free base.

Regarding `CCC(C)n1ncn(-c2ccc(N3CCN(c4ccc(OC[C@H]5CO[C@](Cn6cncn6)(c6ccc(Cl)cc6Cl)O5)cc4)CC3)cc2)c1=O` (mixture of isomers) [itraconazole, 4-[4-[4-[4-[[2-(2,4-dichlorophenyl)-2-(1H-1,2,4-triazol-1-ylmethyl)-1,3-dioxolan-4-yl]methoxy]phenyl]-1-piperazinyl]phenyl]-2,4-dihydro-2-(1-methylpropyl)-3H-1,2,4-triazol-3-one], the “pKa value for the piperazine” value in data set [1] is 3.7. The solubility in water result in data set [2] is “only very sparingly soluble in water”.
